Like-named read-outs stand apart in the source and are kept apart here.
Experiments:
[1] = Plasma pharmacokinetics after single and multiple oral doses (non-compartmental analysis); assay type: in vivo, human; conditions: patients with T2DM; for Tmax,ss / Tmax: median (range)
Method: This was a single-center, randomized, double-blind, placebo and positive-controlled, single and multiple oral-dose study. A total of 32 Chinese adults diagnosed with T2DM were recruited for this study and allocated into two dosage groups: 50 mg and 100 mg, each consisting of 16 participants. […] The positive control was designed as open label. […] Subjects underwent medication randomization on day -1, and were assigned the corresponding investigational products. They were orally administered to the drug once every morning on fasting condition for 14 consecutive days. […] After finished the dosing, another OGTT was performed on day 15. Blood samples were collected at designated time points for the analysis of PK/PD and exploratory indicators. Subjects were discharged after completion of the safety assessments on day 19. […] PK parameters were calculated using non-compartmental analysis with Phoenix WinNonlin (version 8.1, Certara, Co., Princeton, NJ, United States). Peak plasma concentration after administration (Cmax) and time to reach Cmax (Tmax) were obtained directly from the observed data, elimination half-life (t1/2) was calculated as ln2/λz using the best fit mode, where λz was the terminal elimination rate constant. Area under the plasma concentration-time curve from zero to the last measurable concentration (AUC0-t) was estimated using the linear trapezoidal method and AUC from zero to infinity (AUC0-∞) was calculated as AUC0-t+Ct/λz, where Ct was the last measured concentration. […] Apparent total plasma clearance after non-intravenous (CL/F) and apparent volume of distribution in terminal phase after non-intravenous (Vz/F) were calculated as Dose/AUC0-∞ and CL/λz, respectively.

[2] = biological target: T1, plasma DPP-4 activity (Homo sapiens, UniProt P27487); assay: Plasma DPP-4 inhibition relative to baseline (fluorescent method, Gly-Pro-7-amide-4-methylcoumarin); assay type: in vivo; conditions: patients with T2DM; for DPP-4 inhibition TRmax,ss / DPP-4 inhibition TRmax: median (range)
T1 construct: from tissue; host or cells: human plasma (K2-EDTA blood from T2DM patients)
T1 sequence (P27487 39-766 limits assumed): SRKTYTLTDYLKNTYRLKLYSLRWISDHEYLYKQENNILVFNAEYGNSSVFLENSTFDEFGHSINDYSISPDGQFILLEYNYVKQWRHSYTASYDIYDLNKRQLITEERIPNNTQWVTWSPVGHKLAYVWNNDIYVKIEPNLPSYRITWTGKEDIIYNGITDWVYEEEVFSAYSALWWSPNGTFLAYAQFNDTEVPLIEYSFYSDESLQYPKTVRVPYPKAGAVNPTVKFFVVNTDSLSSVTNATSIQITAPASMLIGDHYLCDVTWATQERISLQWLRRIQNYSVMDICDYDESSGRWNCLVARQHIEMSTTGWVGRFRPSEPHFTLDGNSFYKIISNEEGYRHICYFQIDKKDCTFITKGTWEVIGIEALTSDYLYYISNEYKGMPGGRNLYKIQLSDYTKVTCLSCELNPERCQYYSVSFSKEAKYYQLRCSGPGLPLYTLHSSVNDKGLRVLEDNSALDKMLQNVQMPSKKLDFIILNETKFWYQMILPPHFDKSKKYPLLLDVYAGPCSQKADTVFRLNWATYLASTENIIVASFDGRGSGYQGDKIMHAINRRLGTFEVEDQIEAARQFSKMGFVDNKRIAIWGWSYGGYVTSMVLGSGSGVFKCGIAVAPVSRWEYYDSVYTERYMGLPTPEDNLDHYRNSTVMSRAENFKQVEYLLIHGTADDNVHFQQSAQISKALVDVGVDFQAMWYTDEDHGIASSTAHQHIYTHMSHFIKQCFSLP
Method: Blood samples for DPP-4 activity determination were collected at the same time points as for PK. 1 mL blood samples were collected into blood-collecting tubes containing K2-EDTA. The tubes were placed on ice until centrifugation. The blood samples were centrifuged at 2-8°C, 1500 g for 10 min within 1 hour after blood collection. After centrifugation, the supernatant were evenly divided into two aliquots and stored at -80 ± 10°C. The plasma DPP-4 activity was determined using a fluorescent method with the substrate Gly-Pro-7-amide-4-methylcoumarin. A range of 3-400 µM was covered by the linear calibration.
The degree of inhibition of DPP-4 enzyme activity relative to baseline (DPP-4 inhibition, %) after administration was calculated as the following equation:
DPP−4 inhibition (%)=(1−DPP−4 activity/DPP−4 activity,Baseline)×100

[3] = system: plasma active GLP-1; set-up: method as in PMID 34965609; conditions: healthy subjects, cited from earlier work
[4] = 50 mg oral once daily, day 14, listed as cetagliptin
[5] = 50 mg oral once daily, listed as cetagliptin
[6] = 100 mg oral once daily, day 14, listed as cetagliptin
[7] = 100 mg oral once daily, listed as cetagliptin

RAUC (accumulation ratio of AUC0-24h, day 14/day 1) ([1]; 50 mg oral once daily): 2.13 ± 0.225
RCmax (accumulation ratio of Cmax, day 14/day 1) ([1]; 50 mg oral once daily): 2.01 ± 0.417
AUC0-24h ([1]; 50 mg oral once daily, day 14): 1530 ± 274 ng·h/mL
AUC0-∞ ([1]; 50 mg oral once daily, day 14): 2710 ± 577 ng·h/mL
AUC(0-t) ([1]; 50 mg oral once daily, day 14): 2510 ± 512 ng·h/mL
CLss/F ([1]; 50 mg oral once daily, day 14): 33.6 ± 5.86 L/h
Cavg ([1]; 50 mg oral once daily, day 14): 63.9 ± 11.4 ng/mL
Cmax,ss ([1]; 50 mg oral once daily, day 14): 162 ± 58.1 ng/mL
Vz,ss/F ([1]; 50 mg oral once daily, day 14): 2010 ± 610 L
t1/2 ([1]; 50 mg oral once daily, day 14): 41.9 ± 11.0 h
CLss/F [1, 4]: 33.6 L/h
Tmax,ss ([1]; 50 mg oral once daily, day 14): 1.00 (0.500-5.00) h
RAUC (accumulation ratio of AUC0-24h, day 14/day 1) [1, 5]: 2.13
RCmax (accumulation ratio of Cmax, day 14/day 1) [1, 5]: 2.01
AUC0-24h ([1]; 50 mg oral, day 1): 717 ± 86.0 ng·h/mL
Cmax ([1]; 50 mg oral, day 1): 80.5 ± 23.3 ng/mL
Tmax ([1]; 50 mg oral, day 1): 2.00 (1.00-4.00) h
RAUC (accumulation ratio of AUC0-24h, day 14/day 1) ([1]; 100 mg oral once daily): 1.75 ± 0.305
RCmax (accumulation ratio of Cmax, day 14/day 1) ([1]; 100 mg oral once daily): 1.49 ± 0.542
AUC0-24h ([1]; 100 mg oral once daily, day 14): 3120 ± 263 ng·h/mL
AUC0-∞ ([1]; 100 mg oral once daily, day 14): 4780 ± 361 ng·h/mL
AUC(0-t) ([1]; 100 mg oral once daily, day 14): 4580 ± 356 ng·h/mL
CLss/F ([1]; 100 mg oral once daily, day 14): 32.2 ± 2.57 L/h
Cavg ([1]; 100 mg oral once daily, day 14): 130 ± 11.0 ng/mL
Cmax,ss ([1]; 100 mg oral once daily, day 14): 300 ± 46.9 ng/mL
Vz,ss/F ([1]; 100 mg oral once daily, day 14): 1640 ± 628 L
t1/2 ([1]; 100 mg oral once daily, day 14): 34.9 ± 12.3 h
CLss/F [1, 6]: 32.2 L/h
Tmax,ss ([1]; 100 mg oral once daily, day 14): 1.00 (0.500-3.00) h
RAUC (accumulation ratio of AUC0-24h, day 14/day 1) [1, 7]: 1.75
RCmax (accumulation ratio of Cmax, day 14/day 1) [1, 7]: 1.49
AUC0-24h ([1]; 100 mg oral, day 1): 1830 ± 347 ng·h/mL
Cmax ([1]; 100 mg oral, day 1): 219 ± 72.3 ng/mL
Tmax ([1]; 100 mg oral, day 1): 1.00 (1.00-3.00) h
mean t1/2 (half-life) ([1]; multiple oral doses, range over 50 mg and 100 mg groups): 34.9 to 41.9 h
time of daily dosing after which steady-state conditions were reached ([1]; once daily dosing, trough concentrations days 7, 10, 14): 1 week
accumulation ratio of AUEC0-24h of DPP-4 inhibition ([2]; 50 mg once daily): ~1
DPP-4 inhibition AUEC0-24h ([2]; 50 mg oral once daily, day 14): 2010 ± 54.1 h*%
DPP-4 inhibition Rmax,ss ([2]; 50 mg oral once daily, day 14): 89.47 ± 1.12%
DPP-4 inhibition Rmin,ss ([2]; 50 mg oral once daily, day 14): 77.24 ± 4.52%
DUR80% (duration for DPP-4 inhibition rate of >80%) ([2]; 50 mg oral once daily, day 14): 21.9 ± 7.05 h
E24h (DPP-4 inhibition at 24 h postdose) ([2]; 50 mg oral once daily, day 14): 78.43 ± 3.85%
DUR80% (duration for DPP-4 inhibition rate of >80%) [2, 4]: 21.9 h
DPP-4 inhibition TRmax,ss ([2]; 50 mg oral once daily, day 14): 2.00 (0.500-6.00) h
DPP-4 inhibition AUEC0-24h ([2]; 50 mg oral, day 1): 1820 ± 77.9 h*%
DPP-4 inhibition Rmax ([2]; 50 mg oral, day 1): 86.39 ± 1.75%
DUR80% (duration for DPP-4 inhibition rate of >80%) ([2]; 50 mg oral, day 1): 8.39 ± 2.37 h
E24h (DPP-4 inhibition at 24 h postdose) ([2]; 50 mg oral, day 1): 68.75 ± 4.75%
DUR80% (duration for DPP-4 inhibition rate of >80%) ([2]; 50 mg oral, day 1, listed as cetagliptin): 8.39 h
DPP-4 inhibition TRmax ([2]; 50 mg oral, day 1): 2.00 (0.500-3.00) h
sustained DPP-4 inhibition (≥80%) compared with sitagliptin ([2]; 100 mg cetagliptin vs 100 mg sitagliptin, multiple administration): much longer
accumulation ratio of AUEC0-24h of DPP-4 inhibition ([2]; 100 mg once daily): ~1
DPP-4 inhibition AUEC0-24h ([2]; 100 mg oral once daily, day 14): 2090 ± 24.4 h*%
DPP-4 inhibition Rmax,ss ([2]; 100 mg oral once daily, day 14): 89.99 ± 0.91%
DPP-4 inhibition Rmin,ss ([2]; 100 mg oral once daily, day 14): 84.28 ± 1.61%
DUR80% (duration for DPP-4 inhibition rate of >80%) ([2]; 100 mg oral once daily, day 14): 32.3 ± 4.53 h
E24h (DPP-4 inhibition at 24 h postdose) ([2]; 100 mg oral once daily, day 14): 83.91 ± 1.39%
DUR80% (duration for DPP-4 inhibition rate of >80%) [2, 6]: 32.3 h
DPP-4 inhibition TRmax,ss ([2]; 100 mg oral once daily, day 14): 2.00 (1.00-3.00) h
DPP-4 inhibition AUEC0-24h ([2]; 100 mg oral, day 1): 2000 ± 41.6 h*%
DPP-4 inhibition Rmax ([2]; 100 mg oral, day 1): 88.78 ± 1.04%
DUR80% (duration for DPP-4 inhibition rate of >80%) ([2]; 100 mg oral, day 1): 21.1 ± 3.42 h
E24h (DPP-4 inhibition at 24 h postdose) ([2]; 100 mg oral, day 1): 79.75 ± 2.63%
DUR80% (duration for DPP-4 inhibition rate of >80%) ([2]; 100 mg oral, day 1, listed as cetagliptin): 21.1 h
DPP-4 inhibition TRmax ([2]; 100 mg oral, day 1): 1.00 (1.00-3.00) h
Compound: C[C@@H]1c2cnc(C(F)(F)F)n2CCN1C(=O)C[C@H](N)Cc1cc(F)c(F)cc1F.O=P(O)(O)O [Cetagliptin, cetagliptin]
accumulation ratios of Rmax and AUEC0-24 h for plasma active GLP-1 ([3]; 50 mg): about 1.0
accumulation ratios of Rmax and AUEC0-24 h for plasma active GLP-1 ([3]; 100 mg): about 1.0
